ChEMBL document CHEMBL1134090, “Esters of 2-(1-hydroxyalkyl)-1,4-dihydroxy-9,10-anthraquinones with melphalan as multifunctional anticancer agents” (Bioorg Med Chem Lett, 2001)
≈ marks a conversion by molar mass, not a printed value.

Experiments:
[1] = Cytotoxicity against L-1210 cells; assay type: cell-based, L1210; settings: mouse, read-out: ED50 (the source's name)
[2] = Antitumor activity against S-180 cells after i.p. administration in mice up to 7 days at a dose of 16 umol/kg; assay type: functional, Mus musculus
[3] = species on record: Mus musculus; assay: Ratio of number of mice that survived after 50 days among eight mice tested; assay type: functional

For `CCC(OC(=O)C(Cc1ccc(N(CCCl)CCCl)cc1)NC=O)c1cc(O)c2c(c1O)C(=O)c1ccccc1C2=O` (stereo not drawn), the CC50 [1] was 0.2 µg/mL (≈ 0.326 µM), the T/C [2] was 245% and the Survival ratio [3] was 3.

With `CCCCC(OC(=O)C(Cc1ccc(N(CCCl)CCCl)cc1)NC=O)c1cc(O)c2c(c1O)C(=O)c1ccccc1C2=O` (stereo not drawn) the CC50 [1] was 0.4 µg/mL (≈ 0.623 µM), the T/C [2] was 230% and the Survival ratio [3] was 2.

For `CCCCCC(O)c1cc(O)c2c(c1O)C(=O)c1ccccc1C2=O` (stereo not drawn), the CC50 [1] was 58 µg/mL (≈ 170 µM) and the T/C [2] was 108%.

In the case of `CCCC(O)c1cc(O)c2c(c1O)C(=O)c1ccccc1C2=O` (stereo not drawn), the CC50 [1] is reported as 10.2 µg/mL (≈ 32.7 µM) and the T/C [2] is reported as 125%.

`CCCCC(O)c1cc(O)c2c(c1O)C(=O)c1ccccc1C2=O` (stereo not drawn) gave a CC50 [1] of 23.7 µg/mL (≈ 72.6 µM) and a T/C [2] of 110%.

With `CCC(O)c1cc(O)c2c(c1O)C(=O)c1ccccc1C2=O` (stereo not drawn) the CC50 [1] was 7.2 µg/mL (≈ 24.1 µM) and the T/C [2] was 135%.

`O=CNC(Cc1ccc(N(CCCl)CCCl)cc1)C(=O)OCc1cc(O)c2c(c1O)C(=O)c1ccccc1C2=O` (stereo not drawn) gave a CC50 [1] of 0.086 µg/mL (≈ 0.147 µM), a T/C [2] of 265% and a Survival ratio [3] of 3.

In the case of `O=C1c2ccccc2C(=O)c2c(O)c(CO)cc(O)c21`, the CC50 [1] is reported as 15 µg/mL (≈ 55.5 µM) and the T/C [2] is reported as 125%.

`CC(O)c1cc(O)c2c(c1O)C(=O)c1ccccc1C2=O` (stereo not drawn) showed a CC50 [1] of 1.9 µg/mL (≈ 6.68 µM) and a T/C [2] of 139%.

In the case of `CCCCCC(OC(=O)C(Cc1ccc(N(CCCl)CCCl)cc1)NC=O)c1cc(O)c2c(c1O)C(=O)c1ccccc1C2=O` (stereo not drawn), the CC50 [1] is reported as 3.1 µg/mL (≈ 4.73 µM), the T/C [2] is reported as 230% and the Survival ratio [3] is reported as 1.

Work on `CCCCCCC(O)c1cc(O)c2c(c1O)C(=O)c1ccccc1C2=O` (stereo not drawn) yielded a CC50 [1] of 60 µg/mL (≈ 169 µM) and a T/C [2] of 115%.

With `CCCCCCCC(O)c1cc(O)c2c(c1O)C(=O)c1ccccc1C2=O` (stereo not drawn) the CC50 [1] was 80 µg/mL (≈ 217 µM) and the T/C [2] was 103%.

With `CC(OC(=O)C(Cc1ccc(N(CCCl)CCCl)cc1)NC=O)c1cc(O)c2c(c1O)C(=O)c1ccccc1C2=O` (stereo not drawn) the CC50 [1] was 0.12 µg/mL (≈ 0.2 µM), the T/C [2] was 272% and the Survival ratio [3] was 6.

In the case of `CCCC(OC(=O)C(Cc1ccc(N(CCCl)CCCl)cc1)NC=O)c1cc(O)c2c(c1O)C(=O)c1ccccc1C2=O` (stereo not drawn), the CC50 [1] is reported as 0.97 µg/mL (≈ 1.55 µM), the T/C [2] is reported as 240% and the Survival ratio [3] is reported as 3.

Compound `CCCCCCC(OC(=O)C(Cc1ccc(N(CCCl)CCCl)cc1)NC=O)c1cc(O)c2c(c1O)C(=O)c1ccccc1C2=O` (stereo not drawn) has a CC50 [1] of 4.5 µg/mL (≈ 6.72 µM), a T/C [2] of 210% and a Survival ratio [3] of 0.

For `CCCCCCCC(OC(=O)C(Cc1ccc(N(CCCl)CCCl)cc1)NC=O)c1cc(O)c2c(c1O)C(=O)c1ccccc1C2=O` (stereo not drawn), the CC50 [1] was 5.9 µg/mL (≈ 8.63 µM), the T/C [2] was 205% and the Survival ratio [3] was 0.

Compound `N[C@@H](Cc1ccc(N(CCCl)CCCl)cc1)C(=O)O` [MELPHALAN] has a CC50 [1] of 0.89 µg/mL (≈ 2.92 µM), a T/C [2] of 225% and a Survival ratio [3] of 3.
